Assay results: US11214542B2, “Histone demethylase inhibitors” (CELGENE QUANTICEL RESEARCH, INC., priority 2012, dated 2022)
pIC50: −log10 of the molar value.

Molecular target: JMJD2C (Homo sapiens (Human), UniProt Q9H3R0)
Test: JMJD2C TR-FRET in vitro enzyme inhibition assay
Assay type: biochemical
Details: 0.3 nM JMJD2C, H3K9me3 peptide, read-out: JMJ-D2C IC50
From the text: This assay determines the ability of a test compound to inhibit Jarid1A, Jarid1B, and JMJD2C demethylase activity. Baculovirus expressed Jarid1A (GenBank Accession #NM_001042603, AA1-1090) was purchased from BPS Bioscience (Cat #50110). Baculovirus expressed Jarid1B (GenBank Accession #NM_006618, AA 2-751) was purchased from BPS Bioscience (Cat #50121) or custom made by MolecularThroughput. Baculovirus-expressed JMJD2C (GenBank Accession #BC143571, AA 2-372) was purchased from BPS Bioscience (Cat #50105).
The ability of test compounds to inhibit the activity of JMJD2C was determined in 384-well plate format under the following reaction conditions: 0.3 nM JMJD2C, 300 nM H3K9me3-biotin labeled peptide (Anaspec cat #64360), 2 μM alpha-ketoglutaric acid in assay buffer of 50 mM HEPES, pH7.3, 0.005% Brij35, 0.5 mM TCEP, 0.2 mg/ml BSA, 50 μM sodium L-ascorbate, and 2 μM ammonium iron(II) sulfate. Reaction product was determined quantitatively by TR-FRET after the addition of detection reagent Phycolink Streptavidin-allophycocyanin (Prozyme) and Europium-anti-di-methylated histone H3 lysine 9 (H3K9me2) antibody (PerkinElmer) in the presence of 5 mM EDTA in LANCE detection buffer (PerkinElmer) at a final concentration of 50 nM and 1 nM, respectively.
The assay reaction was initiated by the following: 2 μl of the mixture of 900 nM H3K9me3-biotin labeled peptide and 6 μM alpha-ketoglutaric acid with 2 μl of 11-point serial diluted inhibitor in 3% DMSO were added to each well of the plate, followed by the addition of 2 μl of 0.9 nM JMJD2C to initiate the reaction. The reaction mixture was incubated at room temperature for 30 min, and terminated by the addition of 6 μl of 5 mM EDTA in LANCE detection buffer containing 100 nM Phycolink Streptavidin-allophycocyanin and 2 nM Europium-anti-H3K9me2 antibody. Plates were read by EnVisionMultilabel Reader in TR-FRET mode (excitation at 320 nm, emission at 615 nm and 665 nm) after 1 hr incubation at rt. A ratio was calculated (665/615) for each well and fitted to determine inhibition constant (IC50).

Sequence of JMJD2C (Q9H3R0 2-372): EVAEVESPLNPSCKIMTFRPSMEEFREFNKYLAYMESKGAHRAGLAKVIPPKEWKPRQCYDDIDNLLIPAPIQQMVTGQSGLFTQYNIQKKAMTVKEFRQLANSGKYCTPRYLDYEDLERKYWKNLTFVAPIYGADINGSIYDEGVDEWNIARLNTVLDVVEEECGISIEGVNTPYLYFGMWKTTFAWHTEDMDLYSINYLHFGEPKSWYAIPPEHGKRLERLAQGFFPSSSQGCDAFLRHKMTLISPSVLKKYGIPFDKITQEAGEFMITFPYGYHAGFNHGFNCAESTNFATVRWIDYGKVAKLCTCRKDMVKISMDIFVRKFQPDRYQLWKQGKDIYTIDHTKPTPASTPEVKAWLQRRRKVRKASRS

Row | Compound | pIC50
1 | 3-{[(6-chloro-1,2,3,4-tetra- hydronaphthalen-1-yl)methyl]- amino}pyridine-4-carboxylic acid [Example 68] | 6.00 to 7.00
2 | 3-{[(6-chloro-1-hydroxy- 1,2,3,4-tetrahydronaphthalen- 1-yl)methyl]amino}pyridine- 4-carboxylic acid [Example 67] | 6.00 to 7.00
3 | O=C(O)c1ccncc1NCC1CCOc2cc(F)ccc21 (stereo not drawn) [Example 65, 3-{[(7-fluoro-3,4-dihydro-2H-chromen-4-yl)methyl]amino}-pyridine-4-carhoxylic acid] | ≥ 7.00
